Consider three compounds from patent publication US9896476B1, “Glycyrrhetic acid derivatives” (KING SAUD UNIVERSITY, priority 2017, dated 2018).

Molecules are shown by their SMILES.

One data set has as its target T1, H+/K+-ATPase (Sus scrofa, UniProt P19156).
T1 construct: Membrane vesicles containing H^+/K^+-ATPase were prepared from pig stomachs; from tissue; host or cells: pig gastric mucosa membrane vesicles
Description: H+/K+-ATPase (proton pump) inhibition in membrane vesicles of stomach mucosa. It is filed as biochemical. The conditions noted are these: pig gastric membrane vesicles, 37° C.; pre-incubation pH (6.0 or 7.4) not given. On the procedure:
Membrane vesicles containing H^+/K^+-ATPase were prepared from pig stomachs obtained from a local slaughter house. Pigs were fasted overnight before slaughter. The gastric mucosa of four stomachs was rinsed with cold saturated NaCl solution for 3-5 min. The superficial cells, cell debris plus the mucus were wiped off with the edge of a plastic ruler and paper towels. The mucosa was scraped off. About 100 g of scrapings were divided into portions of 10 g and homogenized in 0.25 M sucrose with seven strokes in a Potter-Elvehjem Teflon-glass homogenizer. […] The pellet was discarded. The supernatant was centrifuged at 75,000 g for 1 h. The resulting microsomal pellet was homogenized in 30 ml 0.25 M sucrose. Aliquots of 15 ml were transferred to 100 ml centrifuge tubes and layered on top of step gradients, from the bottom comprising 25 ml 37% sucrose (w/v) and 45 ml 7.5% Ficoll (w/v) in 0.25 M sucrose. The tubes were centrifuged at 75,000 g for 1 h in a 6×100 ml ME angle rotor at 4° C. The gradient was then fractionated by pumping Fluoroinert 70 through narrow tubing in a fractionating cap down to the bottom of the tube. Fractions are collected from top through a center hole in the fractionating cap. The yield of vesicles in a typical preparation is about 50-75 mg protein. In order to maintain a stable vesicular structure for a long period of time, the vesicles were frozen at −70° C. under nitrogen, and could then be kept for several months without decrease of H^+/K^+-ATPase activity. The ATPase activity was measured at 37° C. as the release of inorganic phosphate (Pi) from ATP. […] Then, the medium of pH 6.0 is adjusted with HEPES/Tris buffer to pH 7.4. The enzyme reaction is started by addition of nigericin and Tris/ATP. The total reaction volume is 1 ml, containing 20 μg vesicular protein, 4 mM MgCl2, 10 mM KCl, 20 μM nigericin, 2 mM Tris-ATP, 10 mM HEPES and additionally 2 mM Pipes for the pre-incubation medium at pH 6.0. After […] at 37° C., the reaction is stopped by the addition of […] of 50% trichloroacetic acid. The denatured protein was spun down and the Pi content is determined according to Le Bel et al. (1978) and based on the reduction of a phosphomolybdate complex by p-methyl-aminophenol sulfate in a copper acetate buffer or according to Carter and Karl (1982) based on the reaction of phosphomolybdate with the basic dye malachite green. […] IC50 values of the test compound at different pH values were compared with IC50 values of the standard. Statistical differences (P<0.05) were calculated by Student's t-test.

Another data set is described as follows: Acute toxicity in mice. Conditions: mouse, in vivo; male mice; route for the LD50 not stated (oral and intraperitoneal tests described). Here is the method: […]. The animals were divided into groups of six mice each. The compounds were given orally, suspended in 1% gum acacia, in doses of 1, 10, 100, 200, 250, 300 mg/kg.
The mortality percentage in each group was recorded after 24 h.
Additionally, the test compounds were investigated for their parenteral acute toxicity in groups of six mice each as reported earlier. The compounds, or their vehicle propylene glycol (control), were given by intraperitoneal injection in doses of 10, 25, 50, 75, 100 mg/kg. The percentage survival was followed up to seven days.

A further data set concerns the target Human COX-1 (Homo sapiens, UniProt P23219). Description: Human COX-1 enzymatic assay. Conditions: 5 min pre-incubation, 2 min incubation with [14C]-arachidonic acid at 24° C. The class given is biochemical. Here is the method: Human COX-1 and COX-2 activities were determined as described by Wakitani et al. 0.2 ml of 100 mmol Tris HCl buffer (pH 8) containing hematin (2 mmol) and tryptophan (5 mmol) as cofactors. The reaction mixture was pre-incubated with each test compound individually for 5 min at 24° C. [14C]-arachidonic acid (100.00 dpm, 30 mmol) was added to the mixture and then incubated for 2 min (for COX-1) or 45 min (for COX-2) at 24° C. The reaction was stopped by the addition of 400 μl of a solution composed of Et2O/MeOH/1 M citric acid (30:4:1, v/v/v). After centrifugation of the mixture at 1700×/g for 5 min at 4° C., 50 μl of the upper phase was applied to a thin layer chromatography plate. Thin layer chromatography was performed at 4° C. with solvent system of Et2O/MeOH/AcOH (90:2:0.1, v/v/v). Enzyme activity was calculated from the percent conversion of arachidonic acid to PGH2 and its de-composition products, using radiometric photographic system.

In data set [1] the test system is carrageenan-induced rat paw edema. Description: Carrageenan-induced rat paw edema. It is filed as in vivo. The conditions noted are these: for % Protection / Increase in paw edema (ml) ± SEM: 10 μmol/kg s.c. 1 h prior to carrageenan; for % Protection: 4 h, relative to DMSO control; for Increase in paw edema (ml) ± SEM: increase between 0 h and 4 h; for Activity relative to indomethacin: 10 μmol/kg s.c., indomethacin = 100. On the procedure:
Male albino rats weighing 120-150 g were used in these experiments. The rats were kept in an animal house under standard conditions of light and temperature with free access to food and water. The animals were randomly divided into groups of six rats each for each experimental and control group. The paw edema was induced by subplantar injection of […] of 2% carrageenan solution in saline (0.9%). […] A control group was injected with DMSO only. The volume of paw edema (ml) was determined by means of a plethysmometer immediately after carrageenan injection and 4 h later. The increase in paw volume between 0 h and 4 h after carrageenan injection was measured. The percentage protection against inflammation was calculated according to the following formula: % Protection=100%×(Vc−Vd)/Vc where Vc is the 4 h increase in paw volume in the control animals (control) and Vd is the 4 h increase in paw volume in the test animals. Data are expressed as the mean±SEM. Significant difference between the control and test groups was determined using Student's t-test and P values. The difference in results was considered significant when P<0.001.
(Carrageenan injected into the paw causes an acute inflammation.)

T1 sequence (P19156 2-1034 limits assumed): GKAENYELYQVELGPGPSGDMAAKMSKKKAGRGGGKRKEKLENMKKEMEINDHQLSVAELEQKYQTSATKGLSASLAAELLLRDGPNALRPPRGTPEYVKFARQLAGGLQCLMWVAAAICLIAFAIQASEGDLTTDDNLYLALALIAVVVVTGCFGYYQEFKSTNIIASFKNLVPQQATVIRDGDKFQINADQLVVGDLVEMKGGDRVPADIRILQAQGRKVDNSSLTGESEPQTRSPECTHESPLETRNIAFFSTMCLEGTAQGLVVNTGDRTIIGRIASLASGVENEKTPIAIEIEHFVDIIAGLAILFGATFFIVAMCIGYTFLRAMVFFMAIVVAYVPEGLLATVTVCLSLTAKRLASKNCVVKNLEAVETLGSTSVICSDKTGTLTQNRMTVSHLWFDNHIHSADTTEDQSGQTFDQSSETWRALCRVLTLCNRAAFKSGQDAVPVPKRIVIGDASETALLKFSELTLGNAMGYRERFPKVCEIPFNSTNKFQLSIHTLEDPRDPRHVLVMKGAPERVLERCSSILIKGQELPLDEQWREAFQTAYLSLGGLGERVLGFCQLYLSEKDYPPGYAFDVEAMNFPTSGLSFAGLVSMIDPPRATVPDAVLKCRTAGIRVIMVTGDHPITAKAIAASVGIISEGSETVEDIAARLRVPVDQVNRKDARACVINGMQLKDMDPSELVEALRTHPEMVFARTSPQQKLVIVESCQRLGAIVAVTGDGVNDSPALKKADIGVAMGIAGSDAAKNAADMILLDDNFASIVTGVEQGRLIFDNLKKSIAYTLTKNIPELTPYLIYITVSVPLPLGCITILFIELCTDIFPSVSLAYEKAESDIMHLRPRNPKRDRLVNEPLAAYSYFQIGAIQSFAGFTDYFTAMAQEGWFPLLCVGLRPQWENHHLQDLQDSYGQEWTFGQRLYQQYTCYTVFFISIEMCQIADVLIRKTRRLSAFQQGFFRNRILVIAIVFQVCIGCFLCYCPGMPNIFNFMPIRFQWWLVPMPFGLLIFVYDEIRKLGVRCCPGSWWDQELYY
T1 sequence (P18434 whole entry partner): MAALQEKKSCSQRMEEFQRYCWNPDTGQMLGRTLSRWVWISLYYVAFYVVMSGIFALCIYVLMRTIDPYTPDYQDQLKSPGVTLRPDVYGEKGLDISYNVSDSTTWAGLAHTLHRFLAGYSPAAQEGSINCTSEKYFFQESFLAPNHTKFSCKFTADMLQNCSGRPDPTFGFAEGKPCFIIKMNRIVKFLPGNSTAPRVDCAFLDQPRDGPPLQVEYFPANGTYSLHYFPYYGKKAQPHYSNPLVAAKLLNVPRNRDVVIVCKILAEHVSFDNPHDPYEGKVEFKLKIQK
Human COX-1, sequence (P23219 24-599): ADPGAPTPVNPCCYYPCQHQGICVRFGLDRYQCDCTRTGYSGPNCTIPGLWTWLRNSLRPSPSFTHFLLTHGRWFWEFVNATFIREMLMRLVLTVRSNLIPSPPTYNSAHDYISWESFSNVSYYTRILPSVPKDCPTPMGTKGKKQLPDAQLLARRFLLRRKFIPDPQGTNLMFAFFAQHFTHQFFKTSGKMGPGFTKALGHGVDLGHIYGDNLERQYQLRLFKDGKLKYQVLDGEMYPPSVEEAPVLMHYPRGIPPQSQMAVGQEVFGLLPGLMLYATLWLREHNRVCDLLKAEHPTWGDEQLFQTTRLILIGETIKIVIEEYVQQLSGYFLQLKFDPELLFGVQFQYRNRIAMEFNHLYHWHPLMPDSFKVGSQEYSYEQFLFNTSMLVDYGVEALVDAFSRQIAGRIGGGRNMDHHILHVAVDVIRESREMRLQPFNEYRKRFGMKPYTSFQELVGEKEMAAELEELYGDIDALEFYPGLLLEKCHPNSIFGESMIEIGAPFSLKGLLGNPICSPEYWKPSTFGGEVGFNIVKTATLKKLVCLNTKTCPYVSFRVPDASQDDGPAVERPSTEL

By IC50 is commonly meant the point on the concentration scale where inhibition reaches its midpoint. A word on the LD50: it is the dose at which mortality reaches 50%. The compound `CC1(C(=O)O)CCC2(C)CCC3(C)C(=CC(=O)C4C5(C)C/C(=C\c6ccc(F)cc6)C(=O)C(C)(C)C5CCC43C)C2C1` (stereo not drawn) [Compound 2, 2-(4-fluorobenzylidene)-3,11-dioxo-18β-olean-12-en-30-oic acid] came in with an IC50 against H+/K+-ATPase of 11.46 ± 0.009 µM. The compound also returned an LD50 in “Acute toxicity in mice” of 3100 mg/kg. On Human COX-1, this compound showed a 50% inhibitory concentration (IC50) of 298 µM. Also, in data set [1], the “% Protection” value is on record as 98.40%, the “Increase in paw edema (ml) ± SEM” value turned out to be 0.0157 ± 0.0004 mL and the “Activity relative to indomethacin” value was determined as 132.09.
At H+/K+-ATPase, `Cn1nc2c(c1-c1ccc(F)cc1)CC1(C)C(CCC3(C)C1C(=O)C=C1C4CC(C)(C(=O)O)CCC4(C)CCC13C)C2(C)C` (stereo not drawn) [Compound 3, 2-(4-fluorobenzylidene)-3,11-dioxo-18β-olean[3,2-c]-1′H-5′-(4-fluorophenyl)-N-methylpyrazoline-12-en-30-oic acid] gave an IC50 of 10.03 ± 0.0072 µM. Further, the LD50 in the data set “Acute toxicity in mice” amounted to 3360 mg/kg. In addition, the IC50 at Human COX-1 worked out at 312 µM. Besides, in data set [1], the “% Protection” value was found to be 98.49%, the “Increase in paw edema (ml) ± SEM” value amounted to 0.0148 ± 0.0003 mL and the “Activity relative to indomethacin” value was determined as 132.21.
Compound `Cn1nc2c(c1-c1ccc(F)cc1)CC1(C)C(CCC3(C)C1C(=O)C=C1C4CC5(C)CC(OC5=O)C4(C)CCC13C)C2(C)C` (stereo not drawn) [Compound 4, 2-(4-fluorobenzylidene)-3,11-dioxo-18β-olean[3,2-c]-1′H-5′-(4-fluorophenyl)-N-methylpyrazoline-12-en-30-oic acid (30→22β) lactone] showed an IC50 at H+/K+-ATPase of 9.21 ± 0.0076 µM. Moreover, in “Acute toxicity in mice”, the LD50 stood at 3460 mg/kg. In addition, half-maximal inhibition on Human COX-1 (IC50) required 345 µM. Besides, in data set [1], the “% Protection” value came out at 98.77%, the “Increase in paw edema (ml) ± SEM” value is 0.0121 ± 0.0002 mL and the “Activity relative to indomethacin” value came to 132.58.
